These results are taken from patent US8653263B2 (Janssen Pharmaceutica, priority 2009, dated 2014).

The structures appear in SMILES notation.

The target in one assay is human orexin-2 receptor (Homo sapiens (Human), UniProt O43614). In words: Human orexin 2 receptor radioligand binding ([3H]-EMPA competition). Particulars: HEK293 cells stably expressing human orexin-2 receptor; [3H]-EMPA 5 nM final; apparent Ki=IC50/(1+C/Kd), Kd=2 nM; read-out: OR 2 Ki.
human orexin-2 receptor, sequence (O43614 whole entry): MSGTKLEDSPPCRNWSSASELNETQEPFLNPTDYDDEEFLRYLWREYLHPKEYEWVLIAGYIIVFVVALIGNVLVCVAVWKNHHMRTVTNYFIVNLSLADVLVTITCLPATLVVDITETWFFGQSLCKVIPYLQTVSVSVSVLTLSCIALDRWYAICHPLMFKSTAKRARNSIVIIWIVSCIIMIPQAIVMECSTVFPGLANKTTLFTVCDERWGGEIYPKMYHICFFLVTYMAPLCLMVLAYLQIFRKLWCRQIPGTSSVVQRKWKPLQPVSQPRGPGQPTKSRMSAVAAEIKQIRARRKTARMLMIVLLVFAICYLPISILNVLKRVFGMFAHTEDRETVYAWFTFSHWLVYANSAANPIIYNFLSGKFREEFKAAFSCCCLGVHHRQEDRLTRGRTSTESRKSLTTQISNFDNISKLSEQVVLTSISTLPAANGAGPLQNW
On to `COc1cccc(OC)c1C(=O)N1CC2CN(c3ccc(C(F)(F)F)cn3)CC2C1` (stereo not drawn) [Example 349, 2-[(2,6-Dimethoxyphenyl)carbonyl]-5-[5-(trifluoromethyl)pyridin-2-yl]octahydropyrrolo[3,4-c]pyrrole], for which the Ki is 10000 nM.

In the case of `COc1cccc(OC)c1C(=O)N1CC2CN(c3nc(C)cc(C)n3)CC2C1` (stereo not drawn) [Example 351, (2,6-Dimethoxyphenyl)(5-(4,6-dimethylpyrimidin-2-yl)hexahydropyrrolo[3,4-c]pyrrol-2(1H)-yl)methanone], the Ki is 1200 nM.

`Cc1cc(C)nc(N2CC3CN(C(=O)c4occc4C)CC3C2)n1` (stereo not drawn) [Example 352, (5-(4,6-Dimethylpyrimidin-2-yl)hexahydropyrrolo[3,4-c]pyrrol-2(1H)-yl)(3-methylfuran-2-yl)methanone]: the Ki was 10000 nM. As to `Cc1ccoc1C(=O)N1CC2CN(c3ccc(C(F)(F)F)cn3)CC2C1` (stereo not drawn) [Example 353, 2-[(3-Methylfuran-2-yl)carbonyl]-5-[5-(trifluoromethyl)pyridin-2-yl]octahydropyrrolo[3,4-c]pyrrole], the Ki turned out to be 10000 nM. On the same count and under the same terms, in the case of `Cc1ccoc1C(=O)N1CC2CN(c3cnc4ccccc4n3)CC2C1` (stereo not drawn) [Example 355, (3-Methylfuran-2-yl)(5-(quinoxalin-2-yl)hexahydropyrrolo[3,4-c]pyrrol-2(1H)-yl)methanone] it was 10000 nM.

On to `Cc1cc(C)nc(N2CC3CN(S(=O)(=O)c4ccccc4-c4ccccc4)CC3C2)n1` (stereo not drawn) [Example 358, 2-([1,1′-Biphenyl]-2-ylsulfonyl)-5-(4,6-dimethylpyrimidin-2-yl)octahydropyrrolo[3,4-c]pyrrole], for which the Ki stood at 230 nM. Same read-out and setting: the value for `COc1ccccc1S(=O)(=O)N1CC2CN(c3nc(C)cc(C)n3)CC2C1` (stereo not drawn) [Example 359, 2-(4,6-Dimethylpyrimidin-2-yl)-5-((2-methoxyphenyl)sulfonyl)octahydropyrrolo[3,4-c]pyrrole] was 180 nM; that for `COc1ccccc1S(=O)(=O)N1CC2CN(c3ccc(C(F)(F)F)cn3)CC2C1` (stereo not drawn) [Example 361, 2-((2-Methoxyphenyl)sulfonyl)-5-(5-(trifluoromethyl)pyridin-2-yl)octahydropyrrolo[3,4-c]pyrrole] was 4400 nM; that for `COc1ccccc1S(=O)(=O)N1CC2CN(c3cnc4ccccc4n3)CC2C1` (stereo not drawn) [Example 362, 2-(5-((2-Methoxyphenyl)sulfonyl)hexahydropyrrolo[3,4-c]pyrrol-2(1H)-yl)quinoxaline] was 1800 nM. On the same count and under the same terms, in the case of `Cc1cc(C)nc(N2CC3CN(C(=O)c4ccc(F)cc4-c4ccccn4)CC3C2)n1` (stereo not drawn) [Example 366, (5-(4,6-Dimethylpyrimidin-2-yl)hexahydropyrrolo[3,4-c]pyrrol-2(1H)-yl)(4-fluoro-2-(pyridin-2-yl)phenyl)methanone] it was 23 nM; in that of `Cc1cc(C)nc(N2CC3CN(C(=O)c4cccc(F)c4-c4ccccn4)CC3C2)n1` (stereo not drawn) [Example 367, (5-(4,6-Dimethylpyrimidin-2-yl)hexahydropyrrolo[3,4-c]pyrrol-2(1H)-yl)(3-fluoro-2-(pyridin-2-yl)phenyl)methanone], 15 nM; in that of `Cc1cc(C)nc(N2CC3CN(C(=O)c4ccc(F)cc4-c4ncco4)CC3C2)n1` (stereo not drawn) [Example 369, (5-(4,6-Dimethylpyrimidin-2-yl)hexahydropyrrolo[3,4-c]pyrrol-2(1H)-yl)(4-fluoro-2-(oxazol-2-yl)phenyl)methanone], 19 nM. Same read-out and setting: the value for `Cc1cccc(-c2c(F)cccc2C(=O)N2CC3CN(c4nc(C)cc(C)n4)CC3C2)n1` (stereo not drawn) [Example 370, (5-(4,6-Dimethylpyrimidin-2-yl)hexahydropyrrolo[3,4-c]pyrrol-2(1H)-yl)(3-fluoro-2-(6-methylpyridin-2-yl)phenyl)methanone] was 84 nM; that for `Cc1cc(C)nc(N2CC3CN(C(=O)c4cccc(F)c4-c4ncccc4C)CC3C2)n1` (stereo not drawn) [Example 371, (5-(4,6-Dimethylpyrimidin-2-yl)hexahydropyrrolo[3,4-c]pyrrol-2(1H)-yl)(3-fluoro-2-(3-methylpyridin-2-yl)phenyl)methanone] was 3400 nM; that for `Cc1cc(C)nc(N2CC3CN(C(=O)c4cccc(F)c4-c4ncccc4Cl)CC3C2)n1` (stereo not drawn) [Example 372, (2-(3-Chloropyridin-2-yl)-3-fluorophenyl)(5-(4,6-dimethylpyrimidin-2-yl)hexahydropyrrolo[3,4-c]pyrrol-2(1H)-yl)methanone] was 109 nM.

For `Cc1ccnc(-c2c(F)cccc2C(=O)N2CC3CN(c4nc(C)cc(C)n4)CC3C2)c1` (stereo not drawn) [Example 373, (5-(4,6-Dimethylpyrimidin-2-yl)hexahydropyrrolo[3,4-c]pyrrol-2(1H)-yl)(3-fluoro-2-(4-methylpyridin-2-yl)phenyl)methanone], the Ki worked out at 42 nM. Same read-out and setting: the value for `Cc1cc(C)nc(N2CC3CN(C(=O)c4cccc(F)c4-c4ncccc4F)CC3C2)n1` (stereo not drawn) [Example 375, (5-(4,6-Dimethylpyrimidin-2-yl)hexahydropyrrolo[3,4-c]pyrrol-2(1H)-yl)(3-fluoro-2-(3-fluoropyridin-2-yl)phenyl)methanone] was 21 nM. Same read-out and setting: in the case of `Cc1cc(C)nc(N2CC3CN(C(=O)c4cccc(F)c4-c4ncco4)CC3C2)n1` (stereo not drawn) [Example 376, (5-(4,6-Dimethylpyrimidin-2-yl)hexahydropyrrolo[3,4-c]pyrrol-2(1H)-yl)(3-fluoro-2-(oxazol-2-yl)phenyl)methanone] it was 17 nM; in that of `COc1ccc(C(=O)N2CC3CN(c4ncc(F)c(C)n4)CC3C2)c(-n2nccn2)c1` (stereo not drawn) [Example 377, 2-(5-Fluoro-4-methylpyrimidin-2-yl)-5-{[4-methoxy-2-(2H-1,2,3-triazol-2-yl)phenyl]carbonyl}octahydropyrrolo[3,4-c]pyrrole], 17 nM; in that of `COc1ccc(C(=O)N2CC3CN(c4ncc(Cl)c(C)n4)CC3C2)c(-n2nccn2)c1` (stereo not drawn) [Example 378, 2-(5-Chloro-4-methylpyrimidin-2-yl)-5-{[4-methoxy-2-(2H-1,2,3-triazol-2-yl)phenyl]carbonyl}octahydropyrrolo[3,4-c]pyrrole], 10 nM. Still for that read-out and setting: the value for `COc1ccc(C(=O)N2CC3CN(c4nc(C)c(F)c(C)n4)CC3C2)c(-n2nccn2)c1` (stereo not drawn) [Example 379, 2-(5-Fluoro-4,6-dimethylpyrimidin-2-yl)-5-{[4-methoxy-2-(2H-1,2,3-triazol-2-yl)phenyl]carbonyl}octahydropyrrolo[3,4-c]pyrrole] was 9 nM. Regarding `COc1ccc(C(=O)N2CC3CN(c4ncc(C)c(C)n4)CC3C2)c(-n2nccn2)c1` (stereo not drawn) [Example 380, 2-(4,5-Dimethylpyrimidin-2-yl)-5-{[4-methoxy-2-(2H-1,2,3-triazol-2-yl)phenyl]carbonyl}octahydropyrrolo[3,4-c]pyrrole], the Ki was found to be 15 nM. The same measure, in the same setting: in the case of `CCc1c(C)nc(N2CC3CN(C(=O)c4ncccc4-n4nccn4)CC3C2)nc1C` (stereo not drawn) [Example 385, 2-(5-Ethyl-4,6-dimethylpyrimidin-2-yl)-5-{[3-(2H-1,2,3-triazol-2-yl)pyridin-2-yl]carbonyl}octahydropyrrolo[3,4-c]pyrrole] it was 42 nM. Still for that read-out and setting: in the case of `Cc1cc(C)nc(N2CC3CN(C(=O)c4ncccc4-c4nc(C)no4)CC3C2)n1` (stereo not drawn) [Example 386, 2-(4,6-Dimethylpyrimidin-2-yl)-5-{[3-(3-methyl-1,2,4-oxadiazol-5-yl)pyridin-2-yl]carbonyl}octahydropyrrolo[3,4-c]pyrrole] it was 940 nM; in that of `O=C(c1cccc(F)c1-c1ncccn1)N1CC2CN(c3cnc4cc(F)c(F)cc4n3)CC2C1` (stereo not drawn) [Example 387, (5-(6,7-Difluoroquinoxalin-2-yl)hexahydropyrrolo[3,4-c]pyrrol-2(1H)-yl)(3-fluoro-2-(pyrimidin-2-yl)phenyl)methanone], 16 nM.

For the compound `COc1ccc(C(=O)N2CC3CN(c4ncc5cc(F)ccc5n4)CC3C2)c(-n2nccn2)c1` (stereo not drawn) [Example 388], the Ki was 30 nM. On the same count and under the same terms, the value for `COc1ccc(C(=O)N2CC3CN(c4cnc5cc(F)c(F)cc5n4)CC3C2)c(-n2nccn2)c1` (stereo not drawn) [Example 389, (5-(6,7-Difluoroquinoxalin-2-yl)hexahydropyrrolo[3,4-c]pyrrol-2(1H)-yl)(4-methoxy-2-(2H-1,2,3-triazol-2-yl)phenyl)methanone] was 22 nM; that for `COc1ccc(C(=O)N2CC3CN(c4cc(N(C)C)ncn4)CC3C2)c(-n2nccn2)c1` (stereo not drawn) [Example 390, (5-(6-(Dimethylamino)pyrimidin-4-yl)hexahydropyrrolo[3,4-c]pyrrol-2(1H)-yl)(4-methoxy-2-(2H-1,2,3-triazol-2-yl)phenyl)methanone] was 190 nM; that for `COc1ccc(C(=O)N2CC3CN(c4cc(N(C)C)nc(C)n4)CC3C2)c(-n2nccn2)c1` (stereo not drawn) [Example 391, (5-(6-(Dimethylamino)-2-methylpyrimidin-4-yl)hexahydropyrrolo[3,4-c]pyrrol-2(1H)-yl)(4-methoxy-2-(2H-1,2,3-triazol-2-yl)phenyl)methanone] was 28 nM. Still for that read-out and setting: in the case of `Cc1cccc(-c2ccc(F)cc2C(=O)N2CC3CN(c4nc(C)cc(C)n4)CC3C2)n1` (stereo not drawn) [Example 399, (5-(4,6-Dimethylpyrimidin-2-yl)hexahydropyrrolo[3,4-c]pyrrol-2(1H)-yl)(5-fluoro-2-(6-methylpyridin-2-yl)phenyl)methanone] it was 570 nM; in that of `Cc1ccnc(-c2ccc(F)cc2C(=O)N2CC3CN(c4nc(C)cc(C)n4)CC3C2)c1` (stereo not drawn) [Example 400, (5-(4,6-Dimethylpyrimidin-2-yl)hexahydropyrrolo[3,4-c]pyrrol-2(1H)-yl)(5-fluoro-2-(4-methylpyridin-2-yl)phenyl)methanone], 510 nM. In the case of `Cc1ccc(-c2ccc(F)cc2C(=O)N2CC3CN(c4nc(C)cc(C)n4)CC3C2)nc1` (stereo not drawn) [Example 401, (5-(4,6-Dimethylpyrimidin-2-yl)hexahydropyrrolo[3,4-c]pyrrol-2(1H)-yl)(5-fluoro-2-(5-methylpyridin-2-yl)phenyl)methanone], the Ki came out at 830 nM.

Staying with this assay, now noted: read-out: OR 2 Ki.
As to `Cc1ccc(-c2c(F)cccc2C(=O)N2CC3CN(c4nc(C)cc(C)n4)CC3C2)nc1` (stereo not drawn) [Example 374, (5-(4,6-Dimethylpyrimidin-2-yl)hexahydropyrrolo[3,4-c]pyrrol-2(1H)-yl)(3-fluoro-2-(5-methylpyridin-2-yl)phenyl)methanone], the Ki is 73 nM.
